Tests used:
[1] = target: T1, Type-2 angiotensin II receptor (Homo sapiens, UniProt P50052); type: cell-based; conditions: cho-k1; also: in other assays of this panel Not Active means under 50% inhibition at 10 µM
T1 sequence (P50052 whole entry): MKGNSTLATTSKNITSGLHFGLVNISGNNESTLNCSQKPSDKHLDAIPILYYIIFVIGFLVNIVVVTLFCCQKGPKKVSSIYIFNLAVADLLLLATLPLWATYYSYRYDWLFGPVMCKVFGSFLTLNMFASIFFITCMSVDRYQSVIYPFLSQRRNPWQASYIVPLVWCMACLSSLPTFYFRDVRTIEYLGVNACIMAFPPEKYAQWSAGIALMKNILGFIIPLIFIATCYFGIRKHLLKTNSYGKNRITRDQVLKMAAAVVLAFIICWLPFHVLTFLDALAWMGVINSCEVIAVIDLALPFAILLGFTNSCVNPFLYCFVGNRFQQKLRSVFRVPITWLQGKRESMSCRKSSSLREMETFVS

[2] = DRUGMATRIX: Sigma2 radioligand binding (ligand: [3H] Ifenprodil); type: cell membranes, Rattus norvegicus, Wistar, Brain, Membrane; conditions: Not Active = under 50% inhibition at 10 µM
Cannabinoid receptor 1 = Cannabinoid receptor 1 (Homo sapiens, UniProt P21554); type: cell membranes, Chem-1, Membrane; conditions: chem-1; also: in other assays of this panel Not Active means under 50% inhibition at 10 µM
[3] = target: Kappa-type opioid receptor (Homo sapiens, UniProt P41145); test: DRUGMATRIX: Opiate kappa (OP2, KOP) radioligand binding (ligand: [3H] Diprenorphine); type: cell membranes, HEK293, Membrane; conditions: hek293; Not Active = under 50% inhibition at 10 µM
D(4) dopamine receptor = target: T2, D(4) dopamine receptor (Homo sapiens, UniProt P21917); test: DRUGMATRIX: Dopamine D4.2 radioligand binding (ligand: [3H] Spiperone); type: cell membranes, CHO-K1, Membrane; conditions: cho-k1; Not Active = under 50% inhibition at 10 µM
T2 sequence (P21917 whole entry): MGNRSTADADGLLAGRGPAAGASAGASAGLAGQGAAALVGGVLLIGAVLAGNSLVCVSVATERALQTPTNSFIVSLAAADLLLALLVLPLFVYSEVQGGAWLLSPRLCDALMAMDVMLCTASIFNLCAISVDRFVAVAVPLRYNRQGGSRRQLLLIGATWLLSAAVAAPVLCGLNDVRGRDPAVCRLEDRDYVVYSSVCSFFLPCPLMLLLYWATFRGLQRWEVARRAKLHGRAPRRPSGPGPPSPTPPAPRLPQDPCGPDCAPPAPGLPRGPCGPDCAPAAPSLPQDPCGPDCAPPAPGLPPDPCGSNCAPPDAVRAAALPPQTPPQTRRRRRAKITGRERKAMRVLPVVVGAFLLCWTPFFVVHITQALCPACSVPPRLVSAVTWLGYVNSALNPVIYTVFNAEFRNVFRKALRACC

[4] = target: Aldo-keto reductase family 1 member B1 (Rattus norvegicus, UniProt P07943); type: tissue-based, Lens of camera-type eye;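 also: inhibition of aldose reductase enzyme activity, measured with DL-glyceraldehyde as the substrate; in other assays of this panel Not Active means under 50% inhibition at 10 µM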
B2 bradykinin receptor = target: T3, B2 bradykinin receptor (Homo sapiens, UniProt P30411); type: cell membranes, Membrane; conditions: chem-1; also: in other assays of this panel Not Active means under 50% inhibition at 10 µM
T3 sequence (P30411 whole entry): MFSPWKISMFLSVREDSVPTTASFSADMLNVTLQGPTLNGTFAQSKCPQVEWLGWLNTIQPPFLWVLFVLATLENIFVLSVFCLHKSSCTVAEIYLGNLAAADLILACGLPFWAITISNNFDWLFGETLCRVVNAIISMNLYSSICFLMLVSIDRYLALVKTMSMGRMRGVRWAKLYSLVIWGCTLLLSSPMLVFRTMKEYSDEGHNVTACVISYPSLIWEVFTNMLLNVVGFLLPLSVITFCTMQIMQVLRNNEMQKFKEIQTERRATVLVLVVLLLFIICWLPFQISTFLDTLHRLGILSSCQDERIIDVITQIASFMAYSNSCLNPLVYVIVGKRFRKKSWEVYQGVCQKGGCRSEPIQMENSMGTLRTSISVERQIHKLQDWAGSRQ

Cannabinoid receptor 1, sequence (P21554 whole entry): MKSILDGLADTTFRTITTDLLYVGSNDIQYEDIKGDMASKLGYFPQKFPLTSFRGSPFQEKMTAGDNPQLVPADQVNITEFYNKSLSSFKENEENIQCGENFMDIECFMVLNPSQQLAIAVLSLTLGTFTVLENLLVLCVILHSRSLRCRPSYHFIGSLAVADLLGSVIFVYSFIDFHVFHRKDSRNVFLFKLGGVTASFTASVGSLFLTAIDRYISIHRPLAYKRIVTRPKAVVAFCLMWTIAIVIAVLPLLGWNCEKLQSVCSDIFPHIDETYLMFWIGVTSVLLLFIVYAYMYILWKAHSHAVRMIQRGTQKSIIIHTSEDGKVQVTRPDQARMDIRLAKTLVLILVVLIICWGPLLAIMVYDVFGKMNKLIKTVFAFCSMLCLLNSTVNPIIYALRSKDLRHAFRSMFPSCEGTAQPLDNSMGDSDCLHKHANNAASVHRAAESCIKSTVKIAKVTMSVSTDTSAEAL
Kappa-type opioid receptor, sequence (P41145 whole entry): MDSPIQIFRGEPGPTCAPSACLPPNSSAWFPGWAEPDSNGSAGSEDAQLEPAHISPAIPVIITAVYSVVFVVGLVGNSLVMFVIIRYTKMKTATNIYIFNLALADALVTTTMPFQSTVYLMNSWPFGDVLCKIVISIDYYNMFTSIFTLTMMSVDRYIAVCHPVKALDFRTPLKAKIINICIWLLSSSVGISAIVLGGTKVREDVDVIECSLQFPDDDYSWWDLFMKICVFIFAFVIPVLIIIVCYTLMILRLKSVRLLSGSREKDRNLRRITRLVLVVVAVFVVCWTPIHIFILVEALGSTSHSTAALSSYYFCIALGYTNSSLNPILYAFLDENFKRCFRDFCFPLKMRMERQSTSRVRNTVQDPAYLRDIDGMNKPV

CC(=O)[C@H]1[C@H](C#N)C[C@H]2[C@@H]3CC=C4C[C@@H](O)CC[C@]4(C)[C@H]3CC[C@@]21C [PREGNENOLONE CARBONITRILE]
Not Active: IC50 [1] | IC50 [2] | Ki [2] | IC50 (Cannabinoid receptor 1) | IC50 [3] | IC50 (D(4) dopamine receptor) | IC50 [4] | IC50 (B2 bradykinin receptor)

CCCN(CCC)S(=O)(=O)c1ccc(C(=O)O)cc1 [PROBENECID]
Not Active: IC50 [1] | IC50 [2] | Ki [2] | IC50 (Cannabinoid receptor 1) | IC50 [3] | IC50 (D(4) dopamine receptor) | IC50 [4] | IC50 (B2 bradykinin receptor)

CCCNCC(O)COc1ccccc1C(=O)CCc1ccccc1 (stereo not given) [PROPAFENONE]
Not Active: IC50 [1] | IC50 [2] | Ki [2] | IC50 (Cannabinoid receptor 1) | IC50 [3] | IC50 (D(4) dopamine receptor) | IC50 [4] | IC50 (B2 bradykinin receptor)

CCCOc1ccc(C(=O)OCCN(CC)CC)cc1N [PROPARACAINE]
Not Active: IC50 [1] | IC50 [2] | Ki [2] | IC50 (Cannabinoid receptor 1) | IC50 [3] | IC50 (D(4) dopamine receptor) | IC50 [4] | IC50 (B2 bradykinin receptor)

Oc1cccc(O)c1O [PYROGALLOL]
Not Active: IC50 [1] | IC50 [2] | Ki [2] | IC50 (Cannabinoid receptor 1) | IC50 [3] | IC50 (D(4) dopamine receptor) | IC50 [4] | IC50 (B2 bradykinin receptor)

Reference: ChEMBL document CHEMBL1909046, “DrugMatrix in vitro pharmacology data”
